Measurements taken from patent US20170057838A1, “WATER CAPPING OF TAILINGS” (priority 2015, published 2017).

System: One-year old yellow perch
Test: yellow perch gill structure after three weeks exposure
Assay type: in vivo
Conditions: added to extract solution
Text: In an attempt to establish a causative link with chemical constituents of test pond water caps, laboratory tests examined the effect of exposure to a naphthenic acid extract from fresh WIP MFT release water on perch gill structure. […] Sulphate and naphthenic acids comprise two of the main constituents of concern in capping water and may act in concert to induce gill damage. The resulting reduced gill surface area likely led to restricted transport of both naphthenic acids and oxygen into the perch body. […] The gill aneurysms presumably occur because the outer layer of the gill has been damaged.

O=S(=O)([O-])[O-].[Na+].[Na+] [sodium sulphate]
effect of addition to the naphthenic acid extract solution on gill toxicity: exacerbated the expression of toxicity
